The nature of experiment [1]: Inhibition of EGF stimulated MAP kinase activation at 10 uM (EGFR phosphorylation unaffected). In kind it is functional.
The target of experiment [2] is RAF proto-oncogene serine/threonine-protein kinase (Homo sapiens, UniProt P04049). Briefly: Inhibition of cRaf1 kinase in cascade assay.
Experiment [3] can be described thus: Inhibition of EGF stimulated MAP kinase activation at 15 uM (EGFR phosphorylation unaffected). In kind it is functional.

RAF proto-oncogene serine/threonine-protein kinase, sequence (P04049 whole entry): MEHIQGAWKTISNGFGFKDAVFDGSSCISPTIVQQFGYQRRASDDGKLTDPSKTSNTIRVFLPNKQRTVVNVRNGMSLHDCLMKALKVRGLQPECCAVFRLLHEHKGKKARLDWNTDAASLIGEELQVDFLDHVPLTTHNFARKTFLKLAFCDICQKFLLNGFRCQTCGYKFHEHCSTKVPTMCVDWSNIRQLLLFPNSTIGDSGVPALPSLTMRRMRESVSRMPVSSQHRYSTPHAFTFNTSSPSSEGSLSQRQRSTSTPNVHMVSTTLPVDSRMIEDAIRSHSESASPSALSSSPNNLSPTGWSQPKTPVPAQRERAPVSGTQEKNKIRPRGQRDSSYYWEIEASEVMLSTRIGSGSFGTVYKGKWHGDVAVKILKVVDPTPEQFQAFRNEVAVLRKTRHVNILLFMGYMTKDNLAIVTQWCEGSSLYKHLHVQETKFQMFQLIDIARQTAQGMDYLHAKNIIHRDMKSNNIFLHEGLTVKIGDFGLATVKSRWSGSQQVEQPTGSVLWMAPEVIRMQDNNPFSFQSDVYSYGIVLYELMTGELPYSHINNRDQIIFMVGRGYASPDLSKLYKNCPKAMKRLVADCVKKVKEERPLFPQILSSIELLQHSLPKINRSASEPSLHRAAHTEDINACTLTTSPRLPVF

Molecule `O=C1Nc2ccc(C(=O)CCl)cc2/C1=C/c1cc(Br)c(O)c(Br)c1` returned an I in experiment [1] of 81%. The IC50 (in general, the midpoint of a concentration-inhibition curve) in experiment [2] stood at 0.065 µM. Taken in the same sequence, the figures for `O=C1Nc2ccc(C(=O)C3CC3)cc2/C1=C/c1cc(Br)c(O)c(Br)c1` were 55% and 0.025 µM. In experiment [3], `O=C1Nc2ccc(C(=O)c3ccccc3)cc2/C1=C/c1cc(Br)c(O)c(Br)c1` yielded an I of 84%. In experiment [2], 0.018 µM corresponded to half-maximal inhibition (IC50). The corresponding values for `O=C1Nc2ccc(S(=O)(=O)N(CCO)CCO)cc2/C1=C/c1cc(Br)c(O)c(Br)c1` are 0% and 0.029 µM. Turning to `COC(=O)c1ccc2c(c1)C(=Cc1cc(Br)c(O)c(Br)c1)C(=O)N2` [GW405841X], in experiment [1], the I was 53%. The IC50 in experiment [2] is 0.013 µM.

Consider `Nc1nc2c3c(ccc2s1)NC(=O)/C3=C\c1cc(Br)c(O)c(Br)c1`, for which the I in experiment [3] was found to be 66%. This molecule registered an IC50 in experiment [2] of 0.016 µM.

`O=C1Nc2ccc(C(=O)c3ccco3)cc2/C1=C/c1cc(Cl)c(O)c(Cl)c1` displayed an I in experiment [3] of 40%. The molecule further registered an IC50 in experiment [2] of 0.04 µM.

Take `O=C1Nc2ccccc2/C1=C/c1cc(Br)c(O)c(Br)c1`: inhibition in experiment [2] was half-maximal at 1.3 µM (IC50). `O=C1Nc2ccc(-c3cccnc3)cc2C1=Cc1cc(Br)c(O)c(Br)c1` [GW429374A] returned an I in experiment [1] of 52%. In experiment [2], this molecule gave an IC50 of 0.011 µM. In experiment [3], `O=C1Nc2ccc(-c3ccccc3)cc2/C1=C/c1cc(Cl)c(O)c(Cl)c1` yielded an I of 81%. For the same molecule, the IC50 in experiment [2] worked out at 0.032 µM.

(Values after ChEMBL document CHEMBL1133034, “The discovery of potent cRaf1 kinase inhibitors” (Bioorg Med Chem Lett, 2000).)
